Test results from PMC5637892 (Journal of Peptide Science, 2017).
Positions of bridges follow the written chain, without caps; N, C: chain ends. Primed or numbered codes have the meaning given here. No end group written: not given here. *: point of attachment. PEG4′ = PEG4 spacer between biotin and the N-terminus; Biotin = O=C1N[C@H]2[C@H](CS[C@H]2CCCCC(=O)*)N1

Columns and labels:
human IgG [1] = experiment: Immunoprecipitation with peptide-immobilized SA beads, human IgG; type: binding; conditions: biotinylated peptide on SA beads, shaken 1 h; SDS‐PAGE
IgY‐Fc = experiment: Peptide-conjugated affinity column HPLC, IgY‐Fc; type: binding, chicken; conditions: for elution of IgY‐Fc from peptide column: 0.1 M glycine‐HCl, pH 2.5 vs pH 3.0, IgY and IgY‐Fc; for absorption of IgY‐Fc on peptide column: biotinylated peptide on HiTrap Streptavidin HP 1 mL, PBS wash
IgY = experiment: Peptide-conjugated affinity column HPLC, IgY; type: binding, chicken; conditions: 0.1 M glycine‐HCl, pH 2.5 vs pH 3.0; IgY and IgY‐Fc
human IgG [2] = experiment: Peptide-conjugated affinity column HPLC, human IgG; type: binding; conditions: biotinylated peptide on HiTrap Streptavidin HP 1 mL, PBS wash
[3] = biological target: Chicken egg yolk immunoglobulin (IgY) (chicken); experiment: SPR

Molecule | recovery of hIgG by peptide beads (human IgG [1]) | elution of IgY‐Fc from peptide column (IgY‐Fc) | absorption of IgY‐Fc on peptide column (IgY‐Fc) | elution of IgY from peptide column (IgY) | human IgG on peptide column (human IgG [2]) | Kd [3]
GVKCTWSSIVDWVCVDM (disulfide 4-14 (inferred)) [Y4‐4] | hIgG was not | eluted from the column at pH 2.5 and 3.0, although the elution peaks at pH 2.5 were sharper than those at pH 3.0 | IgY and IgY‐Fc proteins were absorbed onto both columns | eluted from the column at pH 2.5 and 3.0, although the elution peaks at pH 2.5 were sharper than those at pH 3.0 | human IgG passed through both peptide‐immobilized columns | 
RSVCVWTAVTGWDCRND (disulfide 4-14 (inferred)) [Y5‐55] | hIgG was not | eluted from the column at pH 2.5 and 3.0, although the elution peaks at pH 2.5 were sharper than those at pH 3.0 | IgY and IgY‐Fc proteins were absorbed onto both columns | eluted from the column at pH 2.5 and 3.0, although the elution peaks at pH 2.5 were sharper than those at pH 3.0 | human IgG passed through both peptide‐immobilized columns | 
{Biotin-PEG4′}-GVKCTWSSIVDWVCVDM-NH2 (disulfide 4-14 (inferred)) [Y4‐4 synthetic peptide (biotinylated IgY‐binding peptide)] |  |  |  |  |  | 7.3 µM
{Biotin-PEG4′}-RSVCVWTAVTGWDCRND-NH2 (disulfide 4-14 (inferred)) [Y5‐55 synthetic peptide (biotinylated IgY‐binding peptide)] |  |  |  |  |  | 4.4 µM
